Measurements as given in patent US12258425B2, “Peptide compositions and methods of use” (priority 2015, dated 2025).
Structures can show the parent of a compound that is named as a salt. Where a SMILES comes first, the peptide text is derived from it.

Columns and labels:
[1] = pH-solubility titration (visual: precipitate, turbidity, viscosity, gel); format: physicochemical
Method: Compound 1 obtained as a trihydrochloride salt, as described in Example 1, and was screened for aqueous solubility at different pHs, by carrying out pH titrations according to the following protocol. In some cases Met-12 was run through an identical experimental procedure to determine its solubility pH profile under the same conditions.
Compound 1 (10 mg) was dissolved in water (270-900 ? L) in a 2 mL clear plastic centrifuge tube with vortexing to give a pH ˜2.4 solution. […] This solution was then diluted with the appropriate amount of cosolvent or other excipient (sugar, surfactant etc.) to produce a clear acidic solution of 10 mg of Compound 1 in […] of the test solution at room temperature ([…]). Small aliquots of a basic solution (usually sodium hydroxide 1.0 M or 0.1 M, but sometimes other bases when investigating buffers) were added using a microliter syringe. Between additions the solution was mixed by vortexing, and the solution was inspected visually for precipitates of various types, turbidity, as a likely sign of microprecipitates, and viscosity to detect gel formation. pH measurements were taken at all these observation points. Some experiments titrated from the endogenous low pH to pH 10, but later titrations were not carried much above pH 7, or sometimes even lower.

[2] = system: FasL-induced caspase 8 activation in 661W cells; test: Blockade of FasL-induced caspase 8 activation in 661W cells; format: cell-based; settings: for Concentration of maximal inhibition of FasL-induced caspase 8 activation / EC50: FasL 500 ng/mL, 48 hours; for EC50: trihydrochloride, unbuffered solution in DMSO, read-out: EC50, inhibition of FasL-induced caspase 8 activation
Source text: Cell Culture. The 661W photoreceptor cell line was generously provided by Muayyad Al-Ubaidi (Department of Cell Biology, University of Oklahoma Health Sciences Center, Oklahoma City, OK). The 661W cell line is a photoreceptor line that has been immortalized by the expression of SV40-T antigen under control of the human interphotoreceptor retinol-binding protein (IRBP) promoter (Al-Ubaidi et al.,J Cell Biol., 119(6):1681-1687 (1992), herein incorporated by reference in its entirety). 661W cells express cone photoreceptor markers, including blue and green cone pigments, transducin, and cone arrestin (Tan et al., Invest Ophtholmol Vis Sci., (3):764-768 (2004), herein incorporated by reference in its entirety), and can undergo caspase-mediated cell death (Kanan et al., Invest Ophthalmol Vis Sci., 48(1):40-51 (2007), herein incorporated by reference in its entirety).
The 661W cell line was maintained in Dulbecco's modified Eagle's medium containing 10% fetal bovine serum, 300 mg/L glutamine, 32 mg/L putrescine, 40 μL/L β-mercaptoethanol, 40 μg/L hydrocortisone 21-hemisuccinate, and 40 μg/L progesterone. The media also contained penicillin (90 U/mL) and streptomycin (0.09 mg/mL). Cells were grown at 37° C. in a humidified atmosphere of 5% CO2 and 95% air.
Activity Assays. Caspase 3, caspase 8 and caspase 9 activities were measured with colorimetric tetrapeptide cleavage assay kits, per the manufacturer's instructions (BioVision, Mountain View, Calif). Total (661W/retinal) protein was extracted as per a previously published protocol (Zacks et al., IOVS, 44(3):1262-1267 (2003), herein incorporated by reference in its entirety). One hundred micrograms of total (661W/retinal) protein was incubated with caspase 3 (DEVD-pNA), caspase 8 (IETD-pNA) or caspase 9 substrates (LEHD-pNA) at 200 μM final concentration for 60 minutes. Absorbance was measured at 405 nm in a microplate reader (Spectra-MAX 190, Molecular Devices, Sunnyvale, Calif). As a negative control, (661W/retinal) protein was incubated with assay buffer without the tetrapeptide. A second negative control was used in which assay buffer alone was incubated with the tetrapeptide. As a positive control, purified caspase 3, caspase 8, or caspase 9 was incubated with the tetrapeptide alone.
661W cells were treated with a FasL. […] Activity of caspase 8 measured in 661W cell lysates increased with increasing concentration of FasL, peaking with the 500 ng/ml dose. 661W cells were treated with 500 ng/ml FasL and measured activity levels at various time points.
The assay system described above was used as an in vitro screening system to find potential inhibitors of the Fas-induced Caspase 8 activation pathway. […] This activity is very dependent on the formulation in which the Met-12 peptide is delivered. The final formulation for Met-12 was diluted 1000-fold for this assay, and to get to the top of the dose curve, which is normally 100 μM, one uses lesser dilutions.

[3] = system: photoreceptor cells in the detached portion of the retina; test: Rat retinal detachment model, TUNEL count of apoptotic cells; format: in vivo, rats; settings: for Cells positive for TUNEL in detached retina: Example 10, subretinal, three days
Method: Briefly, rodents were anesthetized with a 50:50 mix of ketamine (100 mg/mL) and xylazine (20 mg/mL), and pupils were dilated with topical phenylephrine (2.5%) and tropicamide (1%). A 20-gauge microvitreoretinal blade (Walcott Scientific, Marmora, NJ) was used to create a sclerotomy 2 mm posterior to the limbus, carefully avoiding lens damage.
Under direct visualization through an operating microscope, a subretinal injector (Glaser, 32-gauge tip; BD Ophthalmic Systems, Sarasota, FL) was introduced through the sclerotomy into the vitreous cavity and then through a peripheral retinotomy into the subretinal space. Sodium hyaluronate (10 mg/mL) was slowly injected to detach the neurosensory retina from the underlying retinal pigment epithelium.
In all experiments, approximately one-third to one-half of the superonasal neurosensory retina was detached. In all animals, detachments were created in the same location to allow for direct comparison of retinal cell counts. Detachments were created in the left eye, leaving the right eye as the control. […]
After three days rats were euthanized, retinas were excised, fixed, sectioned, and stained for TUNEL assays. Areas of detached retina were counted for number of apoptotic cells. Each experiment involved 4 fields from each of 4 sections obtained from 5 or 6 retinas for each dosing group.

[4] = 5 μg in 5 μL DMSO, trihydrochloride

CC[C@H](C)[C@H](NC(=O)[C@H](Cc1ccc(O)cc1)NC(=O)[C@H](CC(N)=O)NC(=O)[C@@H](NC(=O)[C@H](C)NC(=O)CNC(=O)[C@H](CC(C)C)NC(=O)[C@H](Cc1ccc(O)cc1)NC(=O)[C@@H](NC(=O)[C@H](Cc1c[nH]cn1)NC(=O)[C@@H](N)Cc1c[nH]cn1)[C@@H](C)CC)C(C)C)C(=O)N[C@@H](Cc1ccc(O)cc1)C(=O)O [Met-12, HHIYLGAVNYIY, reference compound] (H-HHIYLGAVNYIY-OH; N-terminus assumed)
Aqueous solubility (in words) [1]: extremely poor aqueous solubility | pH of onset of gelling ([1]; 70% Propylene glycol): 3.2 pH | pH to which a clear mobile solution persists ([1]; aqueous solution titrated with sodium hydroxide): 3.0 pH | Loss in activity of a non-solution formulation ([2]; 10 mg/mL in 20 mM citrate buffer pH 2.8, in vitro and in vivo assays): at least a fivefold loss in activity | Caspase 8 activation remaining relative to baseline ([2]; Met-12 trihydrochloride at 10 μM, depending on the assay): 0-25% | Dose at which maximum inhibition is achieved ([2]; aqueous based formulations): 50 to 100 µM | Concentration of maximal inhibition of FasL-induced caspase 8 activation ([2]; trihydrochloride in DMSO): 10 µM | EC50 [2]: 4000 nM | Cells positive for TUNEL in detached retina [3, 4]: over 1%

CC[C@H](C)[C@H](NC(=O)[C@H](Cc1ccc(O)cc1)NC(=O)[C@H](CC(N)=O)NC(=O)[C@@H](NC(=O)[C@H](C)NC(=O)CNC(=O)[C@H](CC(C)C)NC(=O)[C@H](Cc1ccc(O)cc1)NC(=O)[C@@H](NC(=O)[C@H](Cc1cnc[nH]1)NC(=O)[C@@H](N)Cc1cnc[nH]1)[C@@H](C)CC)C(C)C)C(=O)N[C@@H](Cc1ccc(O)cc1)C(N)=O [Compound 1 trihydrochloride, His-His-Ile-Tyr-Leu-Gly-Ala-Val-Asn-Tyr-Ile-Tyr-NHz] (H-HHIYLGAVNYIY-NH2)
Most potent concentration (FIG. 3) ([2]; 10 mg/mL in 1% PS-20, 3% PG, pH 4): 3 µM | Dose potency and efficacy versus Met-12 or Compound 1 in DMSO (FIG. 2) ([2]; 10 mg/mL in 2% Polysorbate 20 and 2% PG at pH 4): both considerably more dose potent, but also more efficacious | Course of activity with concentration (FIG. 3) ([2]; 10 mg/mL in 3% PS-20, 3% PG, pH 4, top dose 30): continued increase in activity | Potency relative to Met-12 by 1C50 ([2]; 661W cells, both in DMSO): 10 fold | Potency relative to Met-12 by concentration of maximal inhibition ([2]; 661W cells, both in DMSO): approximately 3 fold | Dose potency versus Met-12 (FIG. 2) ([2]; DMSO (20 mg/mL)): somewhat more dose potent than Met-12 | Activity above 30 μM ([2]; trihydrochloride in DMSO, U-shaped curve): almost inactive | Concentration of maximal inhibition of FasL-induced caspase 8 activation ([2]; trihydrochloride in DMSO): 3 µM | EC50 [2]: 400 nM | Cells positive for TUNEL in detached retina ([3]; 0.5 μg in DMSO): 0.58% | Cells positive for TUNEL in detached retina ([3]; 1 μg in DMSO): 1.14% | Cells positive for TUNEL in detached retina [3, 4]: 0.82% | Cells positive for TUNEL in detached retina ([3]; 10 μg in DMSO): 0.9% | Apoptotic cells in detached retina ([3]; Example 11, 1 μg in 2% propylene glycol, 2% poloxamer 407, pH 4): 0.4% | Apoptotic cells in detached retina ([3]; Example 11, 1 μg in 3% propylene glycol, 3% PS-20, pH 4.0): 0.01% | Apoptotic cells in detached retina ([3]; Example 11, 5 μg in 2% propylene glycol, 2% poloxamer 407, pH 4): 0.3% | Apoptotic cells in detached retina ([3]; Example 11, 5 μg in 3% propylene glycol, 3% PS-20, pH 4.0): 2.9% | Apoptotic cells in detached retina ([3]; Example 11, 5 μg in DMSO): 2.5% | Apoptotic cells in detached retina ([3]; Example 12, 1 μg in DMSO): 2.4%

CC[C@H](C)[C@H](NC(=O)[C@H](Cc1ccc(O)cc1)NC(=O)[C@H](CC(N)=O)NC(=O)[C@@H](NC(=O)[C@H](C)NC(=O)CNC(=O)[C@H](CC(C)C)NC(=O)[C@H](Cc1ccc(O)cc1)NC(=O)[C@@H](NC(=O)[C@H](Cc1cnc[nH]1)NC(=O)[C@@H](N)Cc1cnc[nH]1)[C@@H](C)CC)C(C)C)C(=O)N[C@@H](Cc1ccc(O)cc1)C(N)=O [Compound 1 triacetate, His-His-Ile-Tyr-Leu-Gly-Ala-Val-Asn-Tyr-Ile-Tyr-NHz] (H-HHIYLGAVNYIY-NH2)
Inherent pH of the salt ([1]; 2 mg/mL in water): 3.4-3.6 pH | Apoptotic cells in detached retina ([3]; Example 12, 1 μg in DMSO): 1.2%
